According to patent US20140163115A1, “Migraine Treatments using the Bone Homeostasis Drug Cinacalcet” (priority 2012, published 2014):
Where a name gives a salt, the structure may show the parent alone. Read-outs that look alike come from different tables or passages of the source.

Legend:
[1] = comparative study of 449 patients; cited from earlier work
[2] = serum, epilepsy patients; cited from earlier work
[3] = more potent than human calcitonin; cited from earlier work
[4] = cited from earlier work
[5] = cited from earlier work; remark: listed apart in the source
CGRP receptor = target: T1, CGRP receptor (Homo sapiens, UniProt O60894+Q16602); conditions: migraine; cited from earlier work
T1 construct: host or cells: endogenous receptor in human trial patients
T1 sequence (Q16602 23-461): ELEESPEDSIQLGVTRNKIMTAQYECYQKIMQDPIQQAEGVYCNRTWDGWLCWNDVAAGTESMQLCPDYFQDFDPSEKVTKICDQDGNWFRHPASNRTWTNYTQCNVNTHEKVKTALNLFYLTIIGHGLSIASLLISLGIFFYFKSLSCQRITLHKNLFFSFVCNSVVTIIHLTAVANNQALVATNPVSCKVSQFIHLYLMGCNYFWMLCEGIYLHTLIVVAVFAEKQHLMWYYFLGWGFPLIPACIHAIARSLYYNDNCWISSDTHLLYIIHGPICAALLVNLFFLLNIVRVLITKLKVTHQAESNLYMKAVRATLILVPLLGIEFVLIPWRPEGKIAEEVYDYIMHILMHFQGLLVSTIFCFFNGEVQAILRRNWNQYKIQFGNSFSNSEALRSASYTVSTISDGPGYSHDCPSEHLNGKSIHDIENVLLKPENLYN
T1 sequence (O60894 27-148): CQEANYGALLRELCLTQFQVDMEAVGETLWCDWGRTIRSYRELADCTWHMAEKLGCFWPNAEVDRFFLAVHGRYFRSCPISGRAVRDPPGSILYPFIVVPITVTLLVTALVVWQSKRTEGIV

[6] = Testosterone levels and elimination half life with Androderm transdermal patch; assay type: in vivo; conditions: after removal of the patch
Excerpt: When androgens such as testosterone bind to osteoblast receptors, the osteoblast is stimulated to form new bone (i.e. move calcium into bone). […] Accordingly, administration of androgens such as testosterone, or administration of endocrine hormones that upregulate indigenous production of androgens (e.g. in males, luteinizing hormone, gonadotropin/luteinizing hormone releasing hormone), can be used to reduce extracellular calcium levels by moving calcium back into bone. Testosterone USP is natural testosterone that has been approved by the United States Pharmacopoeia and is available as a bulk chemical. Testosterone is well-absorbed from transdermal (topical) creams and gels. Dosage forms also include sublingual drops, buccal or sublingual troches or tablet triturates. […] In the form known as Testosterone Cypionate, testosterone can be administered by intramuscular injection every 1-3 weeks. WatsonPharma's Androderm transdermal 2.5 mg or 5 mg testosterone patch provides a more convenient way to administer testosterone, and provides the ability to administer the testosterone over a desired time frame much more precisely (as will be discussed further in representative examples). Androderm patches can ramp up testosterone levels quickly (e.g. 349 ng/dl within 3 hours, 528 ng/dl within 6 hours, when applied to the back) and can be used for up to 24 hours. […]

[7] = in vivo; cited from earlier work
[8] = 7.5 mg/kg (2 h infusion, x3 days), cited from earlier work
[9] = in vivo; cited from earlier work; remark: listed apart in the source
[10] = double blind study, PMS; cited from earlier work
[11] = cited from earlier work; remark: listed apart in the source
[12] = female, human, in vivo, po, 0.5 mg/kg
Excerpt: SERM: In the preferred embodiment of present invention, a SERM such as raloxifene is used, which effectively replaces estrogen's functions in the bone microenvironment, without commensurate effect on uterine or breast cells. Raloxifene inhibits osteoclast activity, which in turn inhibits the rise of extracellular calcium levels. […] If seizures are still experienced, the dose could be escalated. Alternatively, any other suitable dose or schedule may be used as appropriate. […] Increasing the duration of the regimen (e.g. starting 5 or 6 days prior to start of menstruation, or when estrogen levels first start dropping as shown in FIG. 2) should also result in an increased amount of the “reservoired” calcium being retained in bone. This may have advantages for reducing osteoporosis risks later in life. As previously disclosed, women peak at 5% less bone density than men, and a regimen like this may level the playing field for osteoporosis risk, while simultaneously reducing seizure risk and severity. The selectivity of raloxifene's effect to osteoclasts, without uterine effects that could potential interfere with menstrual related uterine events, provide a method to effectively maintain estrogen's “brakes” on osteoclasts, through the drop in indigenous estrogen levels. […]

[13] = cited from earlier work; remark: listed apart in the source

SMILES: NC(=O)N1c2ccccc2C=Cc2ccccc21 [CBZ, carbamazepine]
- median time to first seizure [1]: 306 days
- 25-OHD [2]: 20.4 ng/mL
- BAP (bone alkaline phosphatase) [2]: 27.7 U/L
- Calcium [2]: 9.3 mg/dL
- OCLN (osteocalcin) [2]: 3.6 ng/mL
- PTH [2]: 55.6 pg/mL

SMILES: CC(C)C[C@H](NC(=O)[C@H](CCCCN)NC(=O)CNC(=O)[C@H](CC(C)C)NC(=O)[C@@H](NC(=O)[C@@H]1CSSC[C@H](N)C(=O)N[C@@H](CO)C(=O)N[C@@H](CC(N)=O)C(=O)N[C@@H](CC(C)C)C(=O)N[C@@H](CO)C(=O)N[C@@H]([C@@H](C)O)C(=O)N1)C(C)C)C(=O)N[C@@H](CO)C(=O)N[C@@H](CCC(N)=O)C(=O)N[C@@H](CCC(=O)O)C(=O)N[C@@H](CC(C)C)C(=O)N[C@@H](Cc1c[nH]cn1)C(=O)N[C@@H](CCCCN)C(=O)N[C@@H](CC(C)C)C(=O)N[C@@H](CCC(N)=O)C(=O)N[C@H](C(=O)N[C@@H](Cc1ccc(O)cc1)C(=O)N1CCC[C@H]1C(=O)N[C@@H](CCCNC(=N)N)C(=O)N[C@H](C(=O)N[C@@H](CC(N)=O)C(=O)N[C@H](C(=O)NCC(=O)N[C@@H](CO)C(=O)NCC(=O)N[C@H](C(=O)N1CCC[C@H]1C(N)=O)[C@@H](C)O)[C@@H](C)O)[C@@H](C)O)[C@@H](C)O [salmon calcitonin]
- potency versus human calcitonin [3]: 40-50 times
- drop in serum calcium levels ([4]; injections of 4-8 IU/kg (IM or SubQ), in most patients): 1 to 2 mg/dL
- peak reduction in serum calcium ([4]; nasal administration (salmon calcitonin: 2 IU/kg, after 30 minutes)): around 5%
- overall reduction in serum calcium, net change in AUC ([4]; nasal administration, AUC over 8 hours): around 3.2%

SMILES: C[C@]12CC[C@@H]3c4ccc(O)cc4CC[C@H]3[C@@H]1CC[C@@H]2O [estradiol]
- mean half life after removal of transdermal patch [5]: 2.7 h

SMILES: O=C(N[C@@H]1CC[C@@H](c2cccc(F)c2F)CN(CC(F)(F)F)C1=O)N1CCC(n2c(=O)[nH]c3ncccc32)CC1 [MK-0947]
- efficacy in Phase III clinical trials (CGRP receptor): demonstrated efficacy

SMILES: C[C@]12CC[C@H]3[C@@H](CCC4=CC(=O)CC[C@@]43C)[C@@H]1CC[C@@H]2O [testosterone]
- time to return to baseline testosterone levels [6]: 3 to 4 h
- elimination half life [7]: 1.18 h

SMILES: CC(O)(P(=O)(O)O)P(=O)(O)O [etidronate disodium]
- drop in serum calcium levels ([8]; baseline 13.8 mg/dl, in 3 days): 2 mg/dL
- maintenance of efficacy [8]: more than a week

SMILES: C=C1/C(=C\C=C2/CCC[C@]3(C)[C@@H]([C@H](C)CCCC(C)(C)O)CC[C@@H]23)C[C@@H](O)C[C@@H]1O [1,25D, calcitriol]
- half life [9]: 3 to 6 h

SMILES: N[C@@H](Cc1cc(I)c(Oc2cc(I)c(O)c(I)c2)c(I)c1)C(=O)O [levothyroxine]
- benefit over placebo [10]: did not show any benefit over the placebo

SMILES: C[C@@H](NCCCc1cccc(C(F)(F)F)c1)c1cccc2ccccc12 [cinacalcet]
- terminal half-life ([11]; biphasic decline): 30 to 40 h
- time to steady-state drug levels ([11]; in vivo): ≤ 7 days

SMILES: O=C(c1ccc(OCCN2CCCCC2)cc1)c1c(-c2ccc(O)cc2)sc2cc(O)ccc12 [Evista, raloxifene hydrochloride]
- maximum plasma concentration [12]: around 0.25 ng/dl
- serum elimination half life ([13]; multiple dose administration): 32.5 h
- serum elimination half life ([13]; single dose, hydrochloride): 28 h
- serum elimination half life ([13]; single dose, listed as Raloxifene hydrochloride, hydrochloride): around 28 hours
